Experimental data taken from US10688200B2, “Urea-based prostate specific membrane antigen (PSMA) inhibitors for imaging and therapy” (Five Eleven Pharma Inc., priority 2015, dated 2020).

Columns and labels:
[1] = test system: PSMA-expressing LNCaP cells; experiment: Cell binding and internalization; assay type: cell-based, human; conditions: for Cell surface binding activity / Internalized activity: 37° C.
Description: The cellular uptake and internalization kinetics of the [^68Ga]1a, [^68Ga]5a and [^68Ga]5b were determined using PSMA-expressing LNCaP cells. Furthermore, to be able to discriminate between total cellular activity (sum of membrane-associated and internalized activity) and internalized activity, all incubations were followed by a washing step with mild acid at 4° C. to remove specifically cell-surface bound radioligand by displacement.
LNCaP cells (in 6-well plates in triplicates) were incubated in RPMI-1640 medium with [^68Ga]1a, [^68Ga]5a or [^68Ga]5b for 0-2 h at 37° C. At the indicated time, the medium was removed and the cells were washed twice and then incubated with a mild acid buffer (50 mM glycine, 150 mM NaCl, pH 3.0) at 4° C. for 5 min. The supernatant (containing cell surface-bound radioactivity) was pooled and the cell pellet (containing internalized radioactivity) was collected with filter paper and then radioactivity in supernatant and cell pellet was counted on a gamma counter.
LNCaP cells were incubated with [^68Ga]1a, [^68Ga]5a and [^68Ga]5b for up to 2 h at 37° C. to determine whether the compound is internalized by endocytosis. The cells were then washed with a mild acid buffer to remove extracellularly bound compound.
Non specific binding (NSB) was evaluated by blocking with 20 μM PMPA. Specificity of cell uptake (SB) was calculated by subtracting the respective signals resulting from PMPA blocking. Values are expressed as % of applied radioactivity bound to 10^6 cells.

[2] = test system: LNCaP tumor bearing nude mice; experiment: Biodistribution of [68Ga]labeled ligand in PSMA positive tumor bearing nude mice; assay type: in vivo, mouse; conditions: 1 h post-injection, i.v., n = 3
Description: In a dish contained 5×10^6 cells of LNCaP in 50% Matrigel (Becton Dickinson, Heidelberg, Germany) were subcutaneously inoculated into the left shoulder of male 5- to 6-week-old CD-1 nu/nu mice (Charles River Laboratories). The tumors were allowed to grow for 8 weeks until approximately 0.5 cm^3 in size.
The ^68Ga-radiolabeled compounds were injected via tail vein (25 μCi per mouse; 0.1-0.2 nmol). At 1 h after injection, the animals were sacrificed. Organs of interest were dissected and weighed. The radioactivity was measured with a gamma counter and calculated as % ID/g.

[3] = test system: LNCaP PSMA+ and PC-3 PSMA− tumor bearing mice; experiment: Small animal microPET imaging of [68Ga]5b in tumor bearing nude mice; assay type: in vivo, mouse
Description: This study was performed in a small animal imaging facility Male CD-1-nu/nu mice were implanted subcutaneously with 5×10^6 LNCaP cells and PC-3 cells. When the tumors reached approximately 5-10 mm in diameter, the mice were used for microPET imaging. Mice bearing LNCaP tumor and PC-3 tumors were injected via the tail vein with ˜0.5 mCi of [^68Ga]5b. Imaging studies were carried out under general anesthesia of the animals, induced with inhalation of […] and maintained with inhalation of […] isoflurane in 30% oxygen/air. Animals were positioned prone in the scanner. Whole body scan was performed for 15 min from 60 min post-injection of radiotracers. PET images were generated using the AMIDE software. MicroPET images obtained in LNCaP and PC-3 tumor xenografts from 60 min to 75 min after injection of [^68Ga]5b are shown in FIGS. 5A-5C.

[4] = Biodistribution of radiotracers in normal mice; assay type: in vivo, mouse; conditions: for Biodistribution: Blood / Biodistribution: Bone / Biodistribution: Brain / Biodistribution: Heart / Biodistribution: Kidney / Biodistribution: Liver / Biodistribution: Lung / Biodistribution: Muscle / Biodistribution: Pancreas / Biodistribution: Skin / Biodistribution: Spleen: normal male mice
How it was run: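 Male CD-1 mice received 35 μCi [^68Ga] radiotracer (0.2 nmole ligand) by tail vein. Four mice per time point sacrificed at 2, 30, 60 and 120 min p.i.; organs and blood weighed and gamma counted. %ID/g calculated against a standard dilution of the dose, decay-corrected.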

[5] = 60 min to 75 min after injection

SMILES: O=C(O)CCc1ccc2c(c1)C[N+]13CC[N+]45CC(=O)[O][68Ga-3]14([O]C(=O)C3)([O]2)[O]c1ccc(CCC(=O)NCC(=O)N[C@@H](Cc2ccc(OCC(=O)N[C@@H](Cc3ccccc3)C(=O)NCCCC[C@H](NC(=O)N[C@@H](CCC(=O)O)C(=O)O)C(=O)O)cc2)C(=O)O)cc1C5 (some centres unmarked) [[^68Ga]5b]
- Cell surface binding activity ([1]; 5 min): 2.50 ± 0.79 % ID/10^6 cells
- Internalized activity ([1]; 5 min): 1.58 ± 0.30 % ID/10^6 cells
- Cell surface binding activity ([1]; 15 min): 2.87 ± 0.10 % ID/10^6 cells
- Internalized activity ([1]; 15 min): 4.08 ± 0.01 % ID/10^6 cells
- Cell surface binding activity ([1]; 30 min): 3.54 ± 0.62 % ID/10^6 cells
- Internalized activity ([1]; 30 min): 8.29 ± 0.54 % ID/10^6 cells
- Cell surface binding activity ([1]; 60 min): 3.74 ± 0.33 % ID/10^6 cells
- Internalized activity ([1]; 60 min): 12.5 ± 0.46 % ID/10^6 cells
- Cell surface binding activity ([1]; 90 min): 5.03 ± 0.41 % ID/10^6 cells
- Internalized activity ([1]; 90 min): 20.0 ± 2.54 % ID/10^6 cells
- Cell surface binding activity ([1]; 120 min): 4.69 ± 0.45 % ID/10^6 cells
- Internalized activity ([1]; 120 min): 18.9 ± 1.61 % ID/10^6 cells
- Non specific binding (NSB) in LNCaP cell uptake, in words ([1]; blocking with 20 μM PMPA, FIG. 4): extremely low
- Internalized activity, comparison in words ([1]; up to 2 h at 37° C.): much higher than those of [^68Ga]1a and [^68Ga]5a
- Organ distribution: Blood [2]: 0.46 ± 0.04 % dose/g
- Organ distribution: Bone [2]: 0.27 ± 0.07 % dose/g
- Organ distribution: Brain [2]: 0.05 ± 0.01 % dose/g
- Organ distribution: Heart [2]: 0.51 ± 0.12 % dose/g
- Organ distribution: Liver [2]: 0.78 ± 0.09 % dose/g
- Organ distribution: Lung [2]: 2.27 ± 0.37 % dose/g
- Organ distribution: Muscle [2]: 0.34 ± 0.07 % dose/g
- Organ distribution: Pancreas [2]: 0.97 ± 0.23 % dose/g
- Organ distribution: Skin [2]: 1.16 ± 0.57 % dose/g
- Organ distribution: Spleen [2]: 11.09 ± 3.35 % dose/g
- Binding in LNCaP tumor and kidney with 2-PMPA co-injection, in words ([3]; 2-PMPA 2 mg/kg co-injected): binding was abolished in the LNCaP tumor and kidney tissue
- PC-3 (PSMA negative) tumor uptake in microPET, in words [3, 5]: did not show any uptakes
- Uptake in microPET images, in words [3, 5]: uptake was seen only in the kidneys, bladder and PSMA positive LNCaP tumor
- Clearance from organs, in words ([4]; normal CD-1 male mice): cleared quickly and well except kidneys and spleen
- Biodistribution: Body leftover ([4]; normal CD-1 male mice, 2 min): 2.30 ± 0.05 % dose/g
- Biodistribution: Fat ([4]; normal CD-1 male mice, 2 min): 2.08 ± 0.27 % dose/g
- Biodistribution: Large intestine ([4]; normal CD-1 male mice, 2 min): 1.20 ± 0.20 % dose/g
- Biodistribution: Seminal vesicles ([4]; normal CD-1 male mice, 2 min): 1.47 ± 0.25 % dose/g
- Biodistribution: Small intestine ([4]; normal CD-1 male mice, 2 min): 2.46 ± 0.15 % dose/g
- Biodistribution: Stomach ([4]; normal CD-1 male mice, 2 min): 0.81 ± 0.29 % dose/g
- Biodistribution: Tail ([4]; normal CD-1 male mice, 2 min): 8.08 ± 0.78 % dose/g
- Biodistribution: Testes ([4]; normal CD-1 male mice, 2 min): 0.96 ± 0.15 % dose/g
- Biodistribution: Body leftover ([4]; normal CD-1 male mice, 30 min): 0.98 ± 0.05 % dose/g
- Biodistribution: Fat ([4]; normal CD-1 male mice, 30 min): 1.45 ± 0.13 % dose/g
- Biodistribution: Large intestine ([4]; normal CD-1 male mice, 30 min): 0.37 ± 0.04 % dose/g
- Biodistribution: Seminal vesicles ([4]; normal CD-1 male mice, 30 min): 1.13 ± 0.19 % dose/g
- Biodistribution: Small intestine ([4]; normal CD-1 male mice, 30 min): 1.03 ± 0.07 % dose/g
- Biodistribution: Stomach ([4]; normal CD-1 male mice, 30 min): 0.31 ± 0.07 % dose/g
- Biodistribution: Tail ([4]; normal CD-1 male mice, 30 min): 2.92 ± 0.95 % dose/g
- Biodistribution: Testes ([4]; normal CD-1 male mice, 30 min): 1.14 ± 0.21 % dose/g
- Biodistribution: Body leftover ([4]; normal CD-1 male mice, 60 min): 0.52 ± 0.11 % dose/g
- Biodistribution: Fat ([4]; normal CD-1 male mice, 60 min): 0.73 ± 0.11 % dose/g
- Biodistribution: Large intestine ([4]; normal CD-1 male mice, 60 min): 0.31 ± 0.21 % dose/g
- Biodistribution: Seminal vesicles ([4]; normal CD-1 male mice, 60 min): 0.94 ± 0.22 % dose/g
- Biodistribution: Small intestine ([4]; normal CD-1 male mice, 60 min): 0.74 ± 0.17 % dose/g
- Biodistribution: Stomach ([4]; normal CD-1 male mice, 60 min): 0.17 ± 0.06 % dose/g
- Biodistribution: Tail ([4]; normal CD-1 male mice, 60 min): 1.73 ± 0.55 % dose/g
- Biodistribution: Testes ([4]; normal CD-1 male mice, 60 min): 0.82 ± 0.06 % dose/g
- Biodistribution: Body leftover ([4]; normal CD-1 male mice, 120 min): 0.27 ± 0.01 % dose/g
- Biodistribution: Fat ([4]; normal CD-1 male mice, 120 min): 0.35 ± 0.04 % dose/g
- Biodistribution: Large intestine ([4]; normal CD-1 male mice, 120 min): 0.54 ± 0.16 % dose/g
- Biodistribution: Seminal vesicles ([4]; normal CD-1 male mice, 120 min): 0.64 ± 0.10 % dose/g
- Biodistribution: Small intestine ([4]; normal CD-1 male mice, 120 min): 0.45 ± 0.12 % dose/g
- Biodistribution: Stomach ([4]; normal CD-1 male mice, 120 min): 0.22 ± 0.05 % dose/g
- Biodistribution: Tail ([4]; normal CD-1 male mice, 120 min): 0.55 ± 0.04 % dose/g
- Biodistribution: Testes ([4]; normal CD-1 male mice, 120 min): 0.68 ± 0.06 % dose/g
- Biodistribution: Blood ([4]; 2 min): 7.94 ± 0.52 % dose/g
- Biodistribution: Bone ([4]; 2 min): 2.16 ± 0.11 % dose/g
- Biodistribution: Brain ([4]; 2 min): 0.19 ± 0.02 % dose/g
- Biodistribution: Heart ([4]; 2 min): 4.33 ± 0.11 % dose/g
- Biodistribution: Kidney ([4]; 2 min): 50.32 ± 3.31 % dose/g
- Biodistribution: Liver ([4]; 2 min): 2.97 ± 0.24 % dose/g
- Biodistribution: Lung ([4]; 2 min): 5.75 ± 0.26 % dose/g
- Biodistribution: Muscle ([4]; 2 min): 1.97 ± 0.16 % dose/g
- Biodistribution: Pancreas ([4]; 2 min): 2.18 ± 0.04 % dose/g
- Biodistribution: Skin ([4]; 2 min): 2.38 ± 0.10 % dose/g
- Biodistribution: Spleen ([4]; 2 min): 3.86 ± 0.57 % dose/g
- Biodistribution: Blood ([4]; 30 min): 1.13 ± 0.13 % dose/g
- Biodistribution: Bone ([4]; 30 min): 0.60 ± 0.02 % dose/g
- Biodistribution: Brain ([4]; 30 min): 0.05 ± 0.01 % dose/g
- Biodistribution: Heart ([4]; 30 min): 0.98 ± 0.06 % dose/g
- Biodistribution: Kidney ([4]; 30 min): 73.96 ± 5.56 % dose/g
- Biodistribution: Liver ([4]; 30 min): 0.95 ± 0.11 % dose/g
- Biodistribution: Lung ([4]; 30 min): 2.63 ± 0.08 % dose/g
- Biodistribution: Muscle ([4]; 30 min): 0.67 ± 0.05 % dose/g
- Biodistribution: Pancreas ([4]; 30 min): 0.80 ± 0.09 % dose/g
- Biodistribution: Skin ([4]; 30 min): 1.14 ± 0.15 % dose/g
- Biodistribution: Spleen ([4]; 30 min): 1.70 ± 0.44 % dose/g
- Biodistribution: Blood ([4]; 60 min): 0.48 ± 0.11 % dose/g
- Biodistribution: Bone ([4]; 60 min): 0.38 ± 0.04 % dose/g
- Biodistribution: Brain ([4]; 60 min): 0.03 ± 0.00 % dose/g
- Biodistribution: Heart ([4]; 60 min): 0.40 ± 0.09 % dose/g
- Biodistribution: Kidney ([4]; 60 min): 62.77 ± 12.55 % dose/g
- Biodistribution: Liver ([4]; 60 min): 0.54 ± 0.09 % dose/g
- Biodistribution: Lung ([4]; 60 min): 1.28 ± 0.31 % dose/g
- Biodistribution: Muscle ([4]; 60 min): 0.31 ± 0.07 % dose/g
- Biodistribution: Pancreas ([4]; 60 min): 0.52 ± 0.02 % dose/g
- Biodistribution: Skin ([4]; 60 min): 0.58 ± 0.19 % dose/g
- Biodistribution: Spleen ([4]; 60 min): 1.71 ± 0.66 % dose/g
- Biodistribution: Blood ([4]; 120 min): 0.27 ± 0.07 % dose/g
- Biodistribution: Bone ([4]; 120 min): 0.26 ± 0.01 % dose/g
- Biodistribution: Brain ([4]; 120 min): 0.02 ± 0.00 % dose/g
- Biodistribution: Heart ([4]; 120 min): 0.22 ± 0.06 % dose/g
- Biodistribution: Kidney ([4]; 120 min): 49.00 ± 4.76 % dose/g
- Biodistribution: Liver ([4]; 120 min): 0.37 ± 0.06 % dose/g
- Biodistribution: Lung ([4]; 120 min): 0.61 ± 0.07 % dose/g
- Biodistribution: Muscle ([4]; 120 min): 0.16 ± 0.01 % dose/g
- Biodistribution: Pancreas ([4]; 120 min): 0.32 ± 0.02 % dose/g
- Biodistribution: Skin ([4]; 120 min): 0.26 ± 0.02 % dose/g
- Biodistribution: Spleen ([4]; 120 min): 1.39 ± 0.38 % dose/g
